The text below walks through data of ChEMBL document CHEMBL5335843, “Application of tobramycin benzyl ether as an antibiotic adjuvant capable of sensitizing multidrug-resistant Gram-negative bacteria to rifampicin” (2024).

For orientation: MIC means the lowest concentration that inhibits growth of the organism.

Holding throughout (assay type): functional
Assay [1] deals with Escherichia coli. Put plainly: Antibacterial activity against Escherichia coli ATCC 25922 assessed as inhibition of bacterial growth incubated for 18 hrs by two fold broth microdilution assay. (Dilution methods test growth across graded concentrations, often in twofold steps.)
Assay [2] concerns Pseudomonas aeruginosa. Description: Antibacterial activity against Pseudomonas aeruginosa PAO1 assessed as inhibition of bacterial growth incubated for 18 hrs by two fold broth microdilution assay.
Assay [3] has as its system Acinetobacter baumannii. Put plainly: Antibacterial activity against Acinetobacter baumannii ATCC 17978 assessed as inhibition of bacterial growth incubated for 18 hrs by two fold broth microdilution assay.
In assay [4] the test system is Pseudomonas aeruginosa. Put plainly: Antibacterial activity against multi-drug resistant Pseudomonas aeruginosa clinical isolate PA114228 assessed as inhibition of bacterial growth incubated for 18 hrs by two fold broth microdilution assay.
Assay [5] has as its system Escherichia coli. Put plainly: Antibacterial activity against multi-drug resistant Escherichia coli clinical isolate EC107115 assessed as inhibition of bacterial growth incubated for 18 hrs by two fold broth microdilution assay.
Assay [6] relates to Pseudomonas aeruginosa. Put plainly: Antibacterial activity against multi-drug resistant Pseudomonas aeruginosa clinical isolate PA259 assessed as inhibition of bacterial growth incubated for 18 hrs by two fold broth microdilution assay.
In assay [7] the test system is Pseudomonas aeruginosa. Description: Antibacterial activity against multi-drug resistant Pseudomonas aeruginosa clinical isolate PA101243 assessed as inhibition of bacterial growth incubated for 18 hrs by two fold broth microdilution assay.
Assay [8] relates to Escherichia coli. Description: Antibacterial activity against multi-drug resistant Escherichia coli clinical isolate EC94474 assessed as inhibition of bacterial growth incubated for 18 hrs by two fold broth microdilution assay.
Assay [9] relates to Pseudomonas aeruginosa. Put plainly: Antibacterial activity against multi-drug resistant Pseudomonas aeruginosa clinical isolate PA264 assessed as inhibition of bacterial growth incubated for 18 hrs by two fold broth microdilution assay.
The test system of assay [10] is Pseudomonas aeruginosa. Description: Antibacterial activity against multi-drug resistant Pseudomonas aeruginosa clinical isolate PA262 assessed as inhibition of bacterial growth incubated for 18 hrs by two fold broth microdilution assay.
The subject of assay [11] is Acinetobacter baumannii. Put plainly: Antibiotic adjuvant activity against Acinetobacter baumannii ATCC 17978 assessed as fold potentiation incubated for 18 hrs in presence of Rifampicin by two fold broth microdilution checkerboard assay.
Assay [12] relates to Acinetobacter baumannii. Description: Antibiotic adjuvant activity against Acinetobacter baumannii ATCC 17978 assessed as rifampicin MIC incubated for 18 hrs in presence of Rifampicin by two fold broth microdilution checkerboard assay.
For assay [13], the system named is Pseudomonas aeruginosa. Description: Antibiotic adjuvant activity against Pseudomonas aeruginosa PAO1 assessed as fold potentiation incubated for 18 hrs in presence of Rifampicin by two fold broth microdilution checkerboard assay.
For assay [14], the system named is Escherichia coli. Description: Antibiotic adjuvant activity against Escherichia coli ATCC 25922 assessed as rifampicin MIC incubated for 18 hrs in presence of Rifampicin by two fold broth microdilution checkerboard assay.
For assay [15], the system named is Escherichia coli. Description: Antibiotic adjuvant activity against Escherichia coli ATCC 25922 assessed as fold potentiation incubated for 18 hrs in presence of Rifampicin by two fold broth microdilution checkerboard assay.
In assay [16] the test system is Staphylococcus aureus. Put plainly: Antibacterial activity against methicilin-resistant Staphylococcus aureus assessed as inhibition of bacterial growth incubated for 18 hrs by two fold broth microdilution assay.
The test system of assay [17] is Enterococcus faecium. Description: Antibacterial activity against Enterococcus faecium 128149 assessed as inhibition of bacterial growth incubated for 18 hrs by two fold broth microdilution assay.
In assay [18] the test system is Enterococcus faecium. Put plainly: Antibacterial activity against Enterococcus faecium 114278 assessed as inhibition of bacterial growth incubated for 18 hrs by two fold broth microdilution assay.
Assay [19] deals with Enterococcus faecium. Description: Antibiotic adjuvant activity against Enterococcus faecium 114278 assessed as inhibition of bacterial growth incubated for 18 hrs in presence of rifampicin by two fold broth microdilution checkerboard assay.
Assay [20] has as its system Staphylococcus aureus. Description: Antibiotic adjuvant activity against methicilin-resistant Staphylococcus aureus assessed as inhibition of bacterial growth incubated for 18 hrs in presence of rifampicin by two fold broth microdilution checkerboard assay.
The test system of assay [21] is Enterococcus faecium. Put plainly: Antibiotic adjuvant activity against Enterococcus faecium 128149 assessed as inhibition of bacterial growth incubated for 18 hrs in presence of rifampicin by two fold broth microdilution checkerboard assay.

Values after ≈ are worked out from the molar mass of the structure shown. Active and inactive are the calls of the source. The calls are words filed in the database; no cut-off is given here. Positions of bridges follow the written chain, without caps; N, C: chain ends. Non-standard residues stand in square brackets, D forms with d. Residues, ends and D or L forms follow the SMILES beside them. *: point of attachment. X1 = CC[C@H](C)CCCCC(=O)*; dDab = NCC[C@@H](N)C(=O)O; Dab = NCC[C@H](N)C(=O)O

As to `Cl.NC[C@H]1O[C@H](O[C@H]2[C@H](OCc3ccc(Cl)cc3)[C@@H](O[C@H]3O[C@H](COCc4ccc(Cl)cc4)[C@@H](OCc4ccc(Cl)cc4)[C@H](N)[C@H]3OCc3ccc(Cl)cc3)[C@H](N)C[C@@H]2N)[C@H](N)C[C@@H]1OCc1ccc(Cl)cc1`, the MIC with Escherichia coli [1], in the assay on Pseudomonas aeruginosa [2] and in the assay with Acinetobacter baumannii [3] was > 128 µg/mL throughout.

For the molecule `C[C@H]1c2cccc(O)c2C(=O)C2=C(O)[C@]3(O)C(=O)C(C(N)=O)=C(O)[C@@H](N(C)C)[C@@H]3[C@@H](O)[C@@H]21.O` [DOXYCYCLINE], the minimum inhibitory concentration (MIC) in the assay with Pseudomonas aeruginosa [4] is > 128 µg/mL; in the assay with Escherichia coli [5], 128 µg/mL; in the assay with Pseudomonas aeruginosa [6], 256 µg/mL; in the assay on Pseudomonas aeruginosa [7] it was > 128 µg/mL; in the assay on Escherichia coli [8], 64 µg/mL; in the assay on Pseudomonas aeruginosa [9] it was 64 µg/mL. In the assay with Pseudomonas aeruginosa [10], the minimal inhibitory concentration (MIC) came to 512 µg/mL.

Consider `CC(C)CCOC[C@H]1O[C@H](O[C@@H]2[C@@H](OCCC(C)C)[C@H](O[C@H]3O[C@H](CN)[C@@H](OCCC(C)C)C[C@H]3N)[C@@H](N)C[C@H]2N)[C@H](OCCC(C)C)[C@@H](N)[C@@H]1OCCC(C)C.Cl`, for which the “fold change (FC)” value in the assay on Acinetobacter baumannii [11] is on record as 2048; in the assay with Pseudomonas aeruginosa [13], 16. Further, the MIC in the assay on Acinetobacter baumannii [12] was 0.004 µg/mL; in the assay on Escherichia coli [1], 4 µg/mL; with Pseudomonas aeruginosa [2] it was 16 µg/mL; in the assay with Acinetobacter baumannii [3], 16 µg/mL.

In the case of `Cl.NC[C@H]1O[C@H](O[C@H]2[C@H](OCc3ccccc3)[C@@H](OCc3ccccc3)[C@H](N)C[C@@H]2N)[C@H](N)C[C@@H]1OCc1ccccc1`, the “fold change (FC)” value in the assay with Acinetobacter baumannii [11] was 4; with Pseudomonas aeruginosa [13], 4; in the assay with Escherichia coli [15] it was 512. Moreover, the minimal inhibitory concentration (MIC) is 1 µg/mL in the assay on Acinetobacter baumannii [12]; > 128 µg/mL with Escherichia coli [1]; > 128 µg/mL with Pseudomonas aeruginosa [2]; > 128 µg/mL in the assay with Acinetobacter baumannii [3]; 0.0312 µg/mL in the assay on Escherichia coli [14].

Take `Cl.NC[C@H]1O[C@H](O[C@H]2[C@H](OCc3ccc(-c4ccccc4)cc3)[C@@H](O[C@H]3O[C@H](COCc4ccc(-c5ccccc5)cc4)[C@@H](OCc4ccc(-c5ccccc5)cc4)[C@H](N)[C@H]3OCc3ccc(-c4ccccc4)cc3)[C@H](N)C[C@@H]2N)[C@H](N)C[C@@H]1OCc1ccc(-c2ccccc2)cc1`: the MIC with Escherichia coli [1], in the assay with Pseudomonas aeruginosa [2] and in the assay with Acinetobacter baumannii [3] was > 128 µg/mL in each case.

Turning to `CC(C)CCO[C@@H]1[C@@H](OCCC(C)C)[C@H](N)C[C@H](N)[C@H]1O[C@H]1O[C@H](CN)[C@@H](OCCC(C)C)C[C@H]1N.Cl`, the figures for the “fold change (FC)” value in the assay with Acinetobacter baumannii [11], in the assay with Pseudomonas aeruginosa [13] and with Escherichia coli [15] were 4, 4 and 512, respectively. Also, the minimal inhibitory concentration (MIC) in the assay with Acinetobacter baumannii [12] was 0.5 µg/mL; in the assay on Escherichia coli [1], > 128 µg/mL; in the assay with Pseudomonas aeruginosa [2], > 128 µg/mL; with Acinetobacter baumannii [3], > 128 µg/mL; with Escherichia coli [14], 0.0156 µg/mL.

Consider `CC(C)(C)c1ccc(COC[C@H]2O[C@H](O[C@@H]3[C@@H](OCc4ccc(C(C)(C)C)cc4)[C@H](O[C@H]4O[C@H](CN)[C@@H](OCc5ccc(C(C)(C)C)cc5)C[C@H]4N)[C@@H](N)C[C@H]3N)[C@H](OCc3ccc(C(C)(C)C)cc3)[C@@H](N)[C@@H]2OCc2ccc(C(C)(C)C)cc2)cc1.Cl`, for which the MIC in the assay with Escherichia coli [1], with Pseudomonas aeruginosa [2] and in the assay with Acinetobacter baumannii [3] was > 128 µg/mL in each case.

Consider `NC[C@H]1O[C@H](O[C@H]2[C@H](O)[C@@H](O[C@H]3O[C@H](CO)[C@@H](O)[C@H](N)[C@H]3O)[C@H](N)C[C@@H]2N)[C@H](N)C[C@@H]1O` [TOBRAMYCIN], for which the minimum inhibitory concentration (MIC) in the assay on Escherichia coli [1] worked out at 2 µg/mL (≈ 4.28 µM); in the assay on Pseudomonas aeruginosa [2] it was 1 µg/mL (≈ 2.14 µM); in the assay on Acinetobacter baumannii [3] it was 0.5 µg/mL (≈ 1.07 µM).

Turning to COLISTIN, the values for the MIC in the assay with Escherichia coli [1], with Pseudomonas aeruginosa [2] and in the assay on Acinetobacter baumannii [3] were 0.5 µg/mL, 1 µg/mL and 0.5 µg/mL, respectively.

`NC[C@H]1O[C@H](O[C@H]2[C@H](OC(=O)Nc3ccccc3)[C@@H](O[C@H]3O[C@H](COC(=O)Nc4ccccc4)[C@@H](OC(=O)Nc4ccccc4)[C@H](N)[C@H]3OC(=O)Nc3ccccc3)[C@H](N)C[C@@H]2N)[C@H](N)C[C@@H]1OC(=O)Nc1ccccc1.O=C(O)C(F)(F)F`: the “fold change (FC)” value was 16 in the assay on Acinetobacter baumannii [11] and 1 in the assay on Pseudomonas aeruginosa [13]. Besides, the MIC with Acinetobacter baumannii [12] was 0.0312 µg/mL; with Escherichia coli [1], 32 µg/mL; in the assay on Pseudomonas aeruginosa [2], 64 µg/mL; in the assay with Acinetobacter baumannii [3], > 128 µg/mL; with Escherichia coli [14], 0.008 µg/mL.

Take `NC[C@H]1O[C@H](O[C@H]2[C@H](OC(=O)Nc3ccc(Cl)cc3)[C@@H](O[C@H]3O[C@H](COC(=O)Nc4ccc(Cl)cc4)[C@@H](OC(=O)Nc4ccc(Cl)cc4)[C@H](N)[C@H]3OC(=O)Nc3ccc(Cl)cc3)[C@H](N)C[C@@H]2N)[C@H](N)C[C@@H]1OC(=O)Nc1ccc(Cl)cc1.O=C(O)C(F)(F)F`: the “fold change (FC)” value in the assay on Acinetobacter baumannii [11] came out at 16; in the assay with Pseudomonas aeruginosa [13], 1. Moreover, the minimal inhibitory concentration (MIC) worked out at 0.004 µg/mL in the assay on Acinetobacter baumannii [12]; 32 µg/mL in the assay on Escherichia coli [1]; 64 µg/mL in the assay with Pseudomonas aeruginosa [2]; 32 µg/mL in the assay on Acinetobacter baumannii [3]; 0.5 µg/mL in the assay with Escherichia coli [14].

For the molecule `CN(C)c1ccc(O)c2c1C[C@H]1C[C@H]3[C@H](N(C)C)C(O)=C(C(N)=O)C(=O)[C@@]3(O)C(O)=C1C2=O` [MINOCYCLINE], the minimal inhibitory concentration (MIC) in the assay with Pseudomonas aeruginosa [4] was found to be 128 µg/mL (≈ 280 µM); in the assay with Escherichia coli [5] it was 32 µg/mL (≈ 69.9 µM); with Pseudomonas aeruginosa [6] it was 128 µg/mL (≈ 280 µM); with Pseudomonas aeruginosa [7], 64 µg/mL (≈ 140 µM); with Escherichia coli [8], 64 µg/mL (≈ 140 µM); in the assay with Pseudomonas aeruginosa [9] it was 32 µg/mL (≈ 69.9 µM). Also, in the assay on Pseudomonas aeruginosa [10], the MIC is 256 µg/mL (≈ 560 µM).

As to `CC[C@H](C)CCCCC(=O)N[C@@H](CCN)C(=O)N[C@H](C(=O)N[C@@H](CCN)C(=O)N[C@H]1CCNC(=O)[C@H]([C@@H](C)O)NC(=O)[C@H](CCN)NC(=O)[C@H](CCN)NC(=O)[C@H](CC(C)C)NC(=O)[C@@H](Cc2ccccc2)NC(=O)[C@H](CCN)NC1=O)[C@@H](C)O` (X1-[Dab]T[Dab][Dab][Dab][dF]L[Dab][Dab]T; lactam 4-C), the MIC in the assay with Staphylococcus aureus [16], in the assay with Enterococcus faecium [17] and in the assay with Enterococcus faecium [18] was > 128 µg/mL in each case.

Consider `CC[C@H](C)CCCCC(=O)N[C@@H](CCN)C(=O)N[C@H](C(=O)N[C@@H](CCN)C(=O)N[C@H]1CCNC(=O)[C@H]([C@@H](C)O)NC(=O)[C@H](CCN)NC(=O)[C@H](CCN)NC(=O)[C@H](CC(C)C)NC(=O)[C@@H](Cc2ccccc2)NC(=O)[C@@H](CCN)NC1=O)[C@@H](C)O` (X1-[Dab]T[Dab][Dab][dDab][dF]L[Dab][Dab]T; lactam 4-C), for which the result with Enterococcus faecium [19], with Staphylococcus aureus [20] and in the assay with Enterococcus faecium [21] was Active.

`Cl.NC[C@H]1O[C@H](O[C@H]2[C@H](OCc3cc(Cl)cc(Cl)c3)[C@@H](O[C@H]3O[C@H](COCc4cc(Cl)cc(Cl)c4)[C@@H](OCc4cc(Cl)cc(Cl)c4)[C@H](N)[C@H]3OCc3cc(Cl)cc(Cl)c3)[C@H](N)C[C@@H]2N)[C@H](N)C[C@@H]1OCc1cc(Cl)cc(Cl)c1`: the MIC in the assay on Escherichia coli [1], with Pseudomonas aeruginosa [2] and with Acinetobacter baumannii [3] was > 128 µg/mL in each case.
